Where two headings read alike, the source gives them in different places.
Key:
Type in all cases: in vivo
Phytophthora infestans = conditions: for Test D disease control rating: tomato late blight; for Test D disease control rating (100 = 100% disease control, 0 = no disease control): tomato seedlings sprayed to run-off, inoculated the following day, rating relative to controls, unmarked compounds (standard test rate)
Botrytis cinerea = experiment: Test E: gray mold, preventive spray on cucumber seedlings; conditions: for Test E disease control rating: gray mold on cucumber; for Test E disease control rating (100 = 100% disease control, 0 = no disease control): cucumber seedlings sprayed to run-off, inoculated the following day, rating relative to controls, unmarked compounds (standard test rate)
Summary of the method: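 Compounds in 3% acetone were suspended with 250 ppm Trem 014 surfactant and sprayed to run-off on cucumber seedlings. B. cinerea spores were inoculated next day, then 48 h saturated humidity at 20° C and 5 days at 20° C. Disease control rated 0–100% versus controls.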

[1] = test system: Eiysiphe graminis f. sp. tritici; experiment: Test A: wheat powdery mildew, preventive spray on wheat seedlings; conditions: for Test A disease control rating: wheat powdery mildew; for Test A disease control rating (100 = 100% disease control, 0 = no disease control): wheat seedlings sprayed to run-off, inoculated the following day, rating relative to controls, unmarked compounds (standard test rate)
Summary of the method: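 Compounds (3% acetone, 250 ppm Trem 014) sprayed to run-off on wheat seedlings, inoculated next day with spore dust. Incubated 7 days at 20° C before disease rating, 0–100% control relative to untreated controls.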

Pyricularia oryzae = conditions: for Test C disease control rating: rice blast; for Test C disease control rating (100 = 100% disease control, 0 = no disease control): rice seedlings sprayed to run-off, inoculated the following day, rating relative to controls, unmarked compounds (standard test rate)
Puccinia recondita = experiment: Test B: wheat leaf rust, preventive spray on wheat seedlings; conditions: for Test B disease control rating: wheat leaf rust; for Test B disease control rating (100 = 100% disease control, 0 = no disease control): wheat seedlings sprayed to run-off, inoculated the following day, rating relative to controls, unmarked compounds (standard test rate)
Summary of the method: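 Wheat seedlings were sprayed to run-off with compound (3% acetone, 250 ppm Trem 014), then inoculated with P. recondita spores the next day. They were held 24 h saturated at 20 °C, then 6 days at 20 °C. Ratings are 0–100% disease control versus controls.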

[2] = 100 = 100% disease control, 0 = no control, unmarked entries (standard test concentration)
[3] = 100 = 100% disease control, 0 = no control relative to controls, unmarked entries (standard test concentration)

CC(C)(C)C(C#N)C(=O)NCCCc1ccccc1 (racemic) [compound 54]
Test D disease control rating (Phytophthora infestans; [2]): 0% | Test E disease control rating (Botrytis cinerea; [2]): 16% | Test A disease control rating [1, 3]: 34% | Test C disease control rating (Pyricularia oryzae; [2]): 32% | Test B disease control rating (Puccinia recondita; [2]): 11%

C[C@H](COc1cccc(Cl)c1)NC(=O)C(C#N)C(C)(C)C (single isomer, unassigned) [6d]
Test D disease control rating (Phytophthora infestans; [2]): 0% | Test E disease control rating (Botrytis cinerea; [2]): 0% | Test A disease control rating [1, 3]: 77% | Test C disease control rating (Pyricularia oryzae; [2]): 97% | Test B disease control rating (Puccinia recondita; [2]): 28%

C[C@H](COc1ccc(Cl)c(F)c1)NC(=O)C(C#N)C(C)(C)C (single isomer, unassigned) [182a]
Test D disease control rating (Phytophthora infestans; [2]): 0% | Test E disease control rating (Botrytis cinerea; [2]): 0% | Test A disease control rating [1, 3]: 0% | Test C disease control rating (Pyricularia oryzae; [2]): 0% | Test B disease control rating (Puccinia recondita; [2]): 0%

CCC1(C(=O)NC(C)COc2ccccc2C(F)(F)F)C(C)C1(Cl)Cl (mixture of isomers) [94b]
Test D disease control rating (Phytophthora infestans; tested at 40 ppm): 0% | Test E disease control rating (Botrytis cinerea; tested at 40 ppm): 0% | Test A disease control rating ([1]; tested at 40 ppm): 71% | Test C disease control rating (Pyricularia oryzae; tested at 40 ppm): 0% | Test B disease control rating (Puccinia recondita; tested at 40 ppm): 0%

CCC1(C(=O)NCC=Cc2ccccc2Cl)C(C)C1(Cl)Cl (stereo not shown) [compound 158]
Test D disease control rating (Phytophthora infestans; tested at 40 ppm): 0% | Test E disease control rating (Botrytis cinerea; tested at 40 ppm): 0% | Test A disease control rating ([1]; tested at 40 ppm): 0% | Test C disease control rating (Pyricularia oryzae; tested at 40 ppm): 52% | Test B disease control rating (Puccinia recondita; tested at 40 ppm): 0%

CC(COc1cccc(F)c1)NC(=O)C(C#N)C(C)(C)C (mixture of isomers) [3a]
Test D disease control rating (Phytophthora infestans; [2]): 0% | Test E disease control rating (Botrytis cinerea; [2]): 55% | Test A disease control rating [1, 3]: 85% | Test C disease control rating (Pyricularia oryzae; [2]): 94% | Test B disease control rating (Puccinia recondita; [2]): 0%

C=CC(C)(C)C(C#N)C(=O)N[C@H](C)COc1cc(Cl)ccc1Cl (single isomer, unassigned) [215a]
Test D disease control rating (100 = 100% disease control, 0 = no disease control) (Phytophthora infestans): 45% | Test E disease control rating (100 = 100% disease control, 0 = no disease control) (Botrytis cinerea): 0% | Test A disease control rating (100 = 100% disease control, 0 = no disease control) [1]: 63% | Test C disease control rating (100 = 100% disease control, 0 = no disease control) (Pyricularia oryzae): 99% | Test B disease control rating (100 = 100% disease control, 0 = no disease control) (Puccinia recondita): 0%

CC(COc1ccccc1)NC(=O)C(C#N)C(C)(C)C (single isomer, unassigned) [1b]
Test D disease control rating (Phytophthora infestans; [2]): 0% | Test E disease control rating (Botrytis cinerea; [2]): 0% | Test A disease control rating [1, 3]: 34% | Test C disease control rating (Pyricularia oryzae; [2]): 74% | Test B disease control rating (Puccinia recondita; [2]): 11%

CCC1(C(=O)NC(C)COc2ccccc2)C(C)C1(Cl)Cl (mixture of isomers) [77b]
Test D disease control rating (Phytophthora infestans; tested at 40 ppm): 0% | Test E disease control rating (Botrytis cinerea; tested at 40 ppm): 0% | Test A disease control rating ([1]; tested at 40 ppm): 33% | Test C disease control rating (Pyricularia oryzae; tested at 40 ppm): 74% | Test B disease control rating (Puccinia recondita; tested at 40 ppm): 0%

CCC1(C(=O)NC(C)COc2c(Cl)cc(F)cc2Cl)C(C)C1(Cl)Cl (stereo not shown) [compound 251]
Test D disease control rating (100 = 100% disease control, 0 = no disease control) (Phytophthora infestans): 0% | Test E disease control rating (100 = 100% disease control, 0 = no disease control) (Botrytis cinerea): 0% | Test A disease control rating (100 = 100% disease control, 0 = no disease control) [1]: 0% | Test C disease control rating (100 = 100% disease control, 0 = no disease control) (Pyricularia oryzae): 94% | Test B disease control rating (100 = 100% disease control, 0 = no disease control) (Puccinia recondita): 0%

CCC1(C(=O)NC(C)COc2ccc(C(C)(C)C)cc2)C(C)C1(Cl)Cl (stereo not shown) [compound 241]
Test D disease control rating (100 = 100% disease control, 0 = no disease control) (Phytophthora infestans): 74% | Test E disease control rating (100 = 100% disease control, 0 = no disease control) (Botrytis cinerea): 0% | Test A disease control rating (100 = 100% disease control, 0 = no disease control) [1]: 38% | Test C disease control rating (100 = 100% disease control, 0 = no disease control) (Pyricularia oryzae): 74% | Test B disease control rating (100 = 100% disease control, 0 = no disease control) (Puccinia recondita): 0%

C#CC(C)(C)C(C#N)C(=O)NC(C)COc1cc(C)ccc1Cl (mixture of isomers) [compound 213]
Test D disease control rating (Phytophthora infestans; [2]): 62% | Test E disease control rating (Botrytis cinerea; [2]): 0% | Test A disease control rating [1, 3]: 63% | Test C disease control rating (Pyricularia oryzae; [2]): 99% | Test B disease control rating (Puccinia recondita; [2]): 0%

CCC1(C(=O)NC(C)COc2ccc(F)cc2F)C(C)C1(Cl)Cl (stereo not shown) [compound 106]
Test D disease control rating (Phytophthora infestans; tested at 40 ppm): 19% | Test E disease control rating (Botrytis cinerea; tested at 40 ppm): 0% | Test A disease control rating ([1]; tested at 40 ppm): 84% | Test C disease control rating (Pyricularia oryzae; tested at 40 ppm): 97% | Test B disease control rating (Puccinia recondita; tested at 40 ppm): 0%

CC(COc1c(F)cccc1F)NC(=O)C(C#N)C(C)(C)C (mixture of isomers) [29b]
Test D disease control rating (Phytophthora infestans; [2]): 23% | Test E disease control rating (Botrytis cinerea; [2]): 0% | Test A disease control rating [1, 3]: 0% | Test C disease control rating (Pyricularia oryzae; [2]): 100% | Test B disease control rating (Puccinia recondita; [2]): 0%

Reference: patent publication US6642392B1 (priority 1997, dated 2003)
